Experimental data reported in US8394854B2, “Use of L-carnitine for the treatment of cardiovascular diseases” (Sigma-Tau Industrie Farmaceutiche Riunite S.p.A., priority 2004, dated 2013).

Key:
[1] = tested on: experimental cardiac ischaemia model; details: dogs; cited from earlier work
[2] = tested on: patients with acute myocardial infarction; details: 3 grams every 8 hours (9 grams a day) intravenously for 48 hours; control saline solution; cited from earlier work
infarction patients [3] = details: two deaths also in the placebo group; cited from earlier work
infarction patients [4] = details: L-carnitine administered within 24 hours of the infarction; 14 in the control group; cited from earlier work
[5] = tested on: patients with acute myocardial infarction; test: Multicentre randomized, double-blind, placebo-controlled, parallel-group clinical trial of L-carnitine; format: in vivo, human; details: for RR (Relative Risk) of death at 1 mo. / RR (Relative Risk) of death at 2 mos. / RR (Relative Risk) of death at 6 mos. / RR (Relative Risk) of death at 12 mos. / RR (Relative Risk) of death at 3 days / RR (Relative Risk) of death at 5 days / RR (Relative Risk) of death at 7 days: vs placebo
Description: A clinical trial was conducted aimed at evaluating the effect of the administration of L-carnitine on short-, medium- and long-term incidence and mortality in patients with acute myocardial infarction. The trial design was that of a multicentre randomized, double-blind, placebo-controlled, parallel-group trial.
A total of 2,296 patients of male and female sex were recruited, aged below 80 years, subdivided into groups. The study compound, L-carnitine, was administered at a dose of 9 g/day i.v. for the first 5 days and 4 g/day by mouth from day 6 to day 180.
In particular, in one group of patients the L-carnitine was administered intravenously dissolved in sterile saline solution, while in another group of patients it was administered dissolved in normal 5% glucose solution used in hospital departments.
The control group received the standard therapy used for the treatment of infarct, without L-carnitine.
Concomitant therapies were administered according to the procedures adopted in local clinical practice.
The efficacy parameters evaluated were reduction of mortality, reduction of the number of days spent in intensive care, and reduction of the number of episodes of post-infarction heart failure.
• Typical chest pain lasting >30 minutes which is not relieved by oral or i.v. administration of nitrates; • ECG with ST-segment elevation 0.2 mV in D, and in lead aVL and/or in at least two contiguous precordial leads; • Time interval elapsing between onset of symptoms and study randomisation <12 hours; • Age <80 years; • Written informed consent. Exclusion Criteria • Pregnancy or breast-feeding; • Haemodynamically significant valvulopathy; • Hypertrophic or dilatory cardiomyopathy; • Congenital cardiopathy; • Clinically severe liver and kidney disease; • Alcohol abuse; • Other diseases associated with a poor life expectancy; • Conditions making poor compliance with treatment and/or periodic examinations likely; • Inclusion in another trial.

[6] = tested on: patients with signs of infarction; details: 40 mg/kg/day (2.8 g/day), cited from earlier work
[7] = tested on: patients presenting infarction symptoms; details: 2 g/day; 6 in the control group; cited from earlier work
[8] = all patients, L-carnitine in saline or glucose solution
[9] = group treated with L-carnitine dissolved in glucose solution
[10] = L-carnitine dissolved in glucose solution
[11] = all patients, saline or glucose solution

C[N+](C)(C)C[C@H](O)CC(=O)[O-] [L-carnitine]
enhancing cardiac lipid metabolism [1]: active | mortality at 7 days after the start of treatment, control group vs treated group [2]: no significant difference | deaths in the group treated with L-carnitine (infarction patients [3]): two | patients in the treated group who died over the entire hospitalisation period (infarction patients [4]): 11 | NUMBER OF DEATHS AT: 1 mo. [5, 8]: 45 | NUMBER OF DEATHS AT: 1 mo. [5, 9]: 22 | RR (Relative Risk) of death at 1 mo. [5, 10]: 0.79 | RR (Relative Risk) of death at 1 mo. [5, 11]: 0.78 | NUMBER OF DEATHS AT: 2 mos. [5, 8]: 53 | NUMBER OF DEATHS AT: 2 mos. [5, 9]: 26 | RR (Relative Risk) of death at 2 mos. [5, 10]: 0.80 | RR (Relative Risk) of death at 2 mos. [5, 11]: 0.81 | NUMBER OF DEATHS AT: 6 mos. [5, 8]: 64 | NUMBER OF DEATHS AT: 6 mos. [5, 9]: 32 | RR (Relative Risk) of death at 6 mos. [5, 10]: 0.87 | RR (Relative Risk) of death at 6 mos. [5, 11]: 0.86 | NUMBER OF DEATHS AT: 12 mos. [5, 8]: 67 | NUMBER OF DEATHS AT: 12 mos. [5, 9]: 33 | RR (Relative Risk) of death at 12 mos. [5, 10]: 0.88 | RR (Relative Risk) of death at 12 mos. [5, 11]: 0.89 | NUMBER OF DEATHS AT: 3 days ([5]; all patients, L-carnitine in saline or glucose solution, 9 g/day i.v. 5 days then 4 g/day oral): 23 | NUMBER OF DEATHS AT: 3 days [5, 9]: 11 | RR (Relative Risk) of death at 3 days [5, 10]: 0.67 | RR (Relative Risk) of death at 3 days [5, 11]: 0.68 | NUMBER OF DEATHS AT: 5 days [5, 8]: 27 | NUMBER OF DEATHS AT: 5 days [5, 9]: 13 | RR (Relative Risk) of death at 5 days [5, 10]: 0.64 | RR (Relative Risk) of death at 5 days [5, 11]: 0.63 | NUMBER OF DEATHS AT: 7 days [5, 8]: 31 | NUMBER OF DEATHS AT: 7 days [5, 9]: 15 | RR (Relative Risk) of death at 7 days [5, 10]: 0.70 | RR (Relative Risk) of death at 7 days [5, 11]: 0.69 | difference between patients treated within 4 hours of onset of symptoms of infarction and patients treated 4 hours after onset [6]: no statistically significant difference | number of deaths in the treated group ([6]; one in the control group): none | number of deaths at 28 days after the start of treatment [7]: 4
